According to ChEMBL document CHEMBL1201862, “PubChem BioAssay data set” (2004):
Several values for one entry are separate records, joined by “and”; a condition that tells them apart may be missing. Equal entries are not always repeated. Activity calls are given as the source filed them.

Tests used:
Coagulation factor XII = target: T1, Coagulation factor XII (Homo sapiens, UniProt P00748); format: functional;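 also: activated factor XIIa alpha cleaving a fluorogenic AMC peptide substrate; inhibitor potency from loss of enzyme activity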
T1 sequence (P00748 whole entry): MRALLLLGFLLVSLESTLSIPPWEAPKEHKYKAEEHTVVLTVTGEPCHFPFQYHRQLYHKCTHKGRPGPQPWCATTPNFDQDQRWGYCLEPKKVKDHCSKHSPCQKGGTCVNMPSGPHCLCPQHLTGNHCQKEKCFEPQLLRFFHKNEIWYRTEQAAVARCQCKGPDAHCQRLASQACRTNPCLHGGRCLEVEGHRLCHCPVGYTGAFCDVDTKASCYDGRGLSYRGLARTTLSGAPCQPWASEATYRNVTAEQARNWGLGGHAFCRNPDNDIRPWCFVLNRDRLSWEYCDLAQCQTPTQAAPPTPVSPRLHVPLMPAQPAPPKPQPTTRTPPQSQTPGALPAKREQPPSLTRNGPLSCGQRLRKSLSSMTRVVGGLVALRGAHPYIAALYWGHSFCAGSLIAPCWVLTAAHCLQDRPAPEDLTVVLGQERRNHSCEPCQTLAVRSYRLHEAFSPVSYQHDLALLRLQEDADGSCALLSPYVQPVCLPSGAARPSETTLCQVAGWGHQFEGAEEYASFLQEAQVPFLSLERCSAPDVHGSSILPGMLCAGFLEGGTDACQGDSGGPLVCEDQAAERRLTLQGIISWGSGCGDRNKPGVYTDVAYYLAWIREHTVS

[1] = Luminescence Cell-Based Dose Confirmation HTS to Identify Inhibitors of Platelet Dense Granule Release. [Related pubchem assays: 1663 (Primary HTS), 1678 (Summary of Project)]; format: functional
[2] = target: Luciferin 4-monooxygenase (Photinus pyralis, UniProt P08659); assay: inhibition of purified Photinus pyralis luciferase – biochemical, luminescence, dose response (AID 1891)
Sequence of Luciferin 4-monooxygenase (P08659 whole entry): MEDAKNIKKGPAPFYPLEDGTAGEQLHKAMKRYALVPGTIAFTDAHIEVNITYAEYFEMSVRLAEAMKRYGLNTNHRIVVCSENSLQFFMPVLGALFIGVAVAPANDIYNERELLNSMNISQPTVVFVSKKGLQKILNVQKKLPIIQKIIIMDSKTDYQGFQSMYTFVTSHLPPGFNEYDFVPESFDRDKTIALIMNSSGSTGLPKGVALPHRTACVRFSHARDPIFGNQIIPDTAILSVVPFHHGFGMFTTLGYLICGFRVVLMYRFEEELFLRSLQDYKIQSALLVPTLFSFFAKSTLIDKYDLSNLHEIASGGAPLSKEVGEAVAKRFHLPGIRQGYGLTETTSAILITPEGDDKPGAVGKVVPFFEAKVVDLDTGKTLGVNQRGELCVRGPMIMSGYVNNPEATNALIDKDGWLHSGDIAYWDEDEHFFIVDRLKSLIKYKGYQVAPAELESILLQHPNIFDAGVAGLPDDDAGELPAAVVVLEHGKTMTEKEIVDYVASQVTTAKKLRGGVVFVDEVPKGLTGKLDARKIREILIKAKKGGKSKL

[3] = target: T2, Ubiquitin-conjugating enzyme E2 N (Homo sapiens, UniProt P61088); format: functional;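 also: Dose-response confirmation in a TR-FRET assay detecting UBC13-driven polyubiquitin chain formation, inhibition measured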
T2 sequence (P61088 whole entry): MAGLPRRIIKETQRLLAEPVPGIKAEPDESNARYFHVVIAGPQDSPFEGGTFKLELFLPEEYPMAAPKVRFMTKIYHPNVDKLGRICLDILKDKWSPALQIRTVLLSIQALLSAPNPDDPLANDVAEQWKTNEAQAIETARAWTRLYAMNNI

Large T antigen = Large T antigen (Simian virus 40, UniProt P03070); format: functional, Betapolyomavirus macacae;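 also: Confirmatory-stage PubChem screen for compounds that inhibit SV40 T antigen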
Sequence of Large T antigen (P03070 whole entry): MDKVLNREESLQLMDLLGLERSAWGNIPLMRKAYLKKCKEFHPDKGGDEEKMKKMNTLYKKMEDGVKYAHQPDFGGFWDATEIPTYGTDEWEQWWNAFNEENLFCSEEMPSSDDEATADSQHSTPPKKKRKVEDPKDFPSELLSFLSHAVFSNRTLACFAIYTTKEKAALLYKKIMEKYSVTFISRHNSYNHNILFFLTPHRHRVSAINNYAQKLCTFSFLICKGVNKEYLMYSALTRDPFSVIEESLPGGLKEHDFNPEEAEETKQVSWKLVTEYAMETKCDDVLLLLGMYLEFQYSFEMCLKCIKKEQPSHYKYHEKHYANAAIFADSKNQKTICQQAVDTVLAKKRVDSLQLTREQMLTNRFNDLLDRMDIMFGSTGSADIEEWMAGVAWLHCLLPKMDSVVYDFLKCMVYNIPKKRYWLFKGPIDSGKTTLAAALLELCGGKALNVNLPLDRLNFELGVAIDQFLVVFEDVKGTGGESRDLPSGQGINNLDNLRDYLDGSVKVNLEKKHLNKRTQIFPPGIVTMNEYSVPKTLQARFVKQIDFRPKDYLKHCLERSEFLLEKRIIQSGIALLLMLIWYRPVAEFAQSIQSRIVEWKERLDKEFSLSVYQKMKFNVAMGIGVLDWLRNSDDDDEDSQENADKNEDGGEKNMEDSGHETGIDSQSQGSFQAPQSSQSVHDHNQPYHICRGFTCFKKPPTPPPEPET

Genome polyprotein = Genome polyprotein (dengue virus type 2, UniProt P29990); assay: flavivirus cap methylation enzyme inhibition – biochemical, confirmation dose response, primary screen (AID 588689); format: functional
Sequence of Genome polyprotein (P29990 2492-3391 limits assumed): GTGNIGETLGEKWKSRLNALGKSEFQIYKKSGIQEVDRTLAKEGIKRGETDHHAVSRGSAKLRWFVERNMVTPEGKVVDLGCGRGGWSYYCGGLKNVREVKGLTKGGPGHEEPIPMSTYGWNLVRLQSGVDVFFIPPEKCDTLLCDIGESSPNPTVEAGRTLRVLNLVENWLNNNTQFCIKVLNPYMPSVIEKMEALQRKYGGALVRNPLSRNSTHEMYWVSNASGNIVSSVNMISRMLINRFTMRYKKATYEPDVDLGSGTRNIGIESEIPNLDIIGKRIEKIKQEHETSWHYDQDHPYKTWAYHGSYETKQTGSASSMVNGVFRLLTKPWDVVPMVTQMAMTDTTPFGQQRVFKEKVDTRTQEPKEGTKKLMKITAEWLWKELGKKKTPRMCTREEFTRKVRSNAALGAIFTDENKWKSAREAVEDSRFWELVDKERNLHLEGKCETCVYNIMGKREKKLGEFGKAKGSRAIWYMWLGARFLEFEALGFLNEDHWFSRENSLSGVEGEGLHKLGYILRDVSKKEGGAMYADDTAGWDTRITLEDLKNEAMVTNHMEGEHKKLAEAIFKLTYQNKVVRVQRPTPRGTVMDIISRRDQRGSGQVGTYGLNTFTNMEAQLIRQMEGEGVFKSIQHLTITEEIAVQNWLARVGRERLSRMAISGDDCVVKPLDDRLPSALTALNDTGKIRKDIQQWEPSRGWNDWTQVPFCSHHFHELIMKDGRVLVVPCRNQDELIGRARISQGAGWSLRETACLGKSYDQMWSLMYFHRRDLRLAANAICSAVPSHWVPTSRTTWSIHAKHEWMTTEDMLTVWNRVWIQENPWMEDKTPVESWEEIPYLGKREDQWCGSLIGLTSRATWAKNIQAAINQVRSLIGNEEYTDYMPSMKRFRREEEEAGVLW

Leucine aminopeptidase = target: T3, Leucine aminopeptidase (Plasmodium falciparum 3D7, UniProt Q8IL11); assay: P. falciparum M17LAP inhibitors, primary screen, biochemical, fluorogenic H-Leu-NHMec substrate, 1536-well (AID 1619); format: functional
T3 sequence (Q8IL11 whole entry): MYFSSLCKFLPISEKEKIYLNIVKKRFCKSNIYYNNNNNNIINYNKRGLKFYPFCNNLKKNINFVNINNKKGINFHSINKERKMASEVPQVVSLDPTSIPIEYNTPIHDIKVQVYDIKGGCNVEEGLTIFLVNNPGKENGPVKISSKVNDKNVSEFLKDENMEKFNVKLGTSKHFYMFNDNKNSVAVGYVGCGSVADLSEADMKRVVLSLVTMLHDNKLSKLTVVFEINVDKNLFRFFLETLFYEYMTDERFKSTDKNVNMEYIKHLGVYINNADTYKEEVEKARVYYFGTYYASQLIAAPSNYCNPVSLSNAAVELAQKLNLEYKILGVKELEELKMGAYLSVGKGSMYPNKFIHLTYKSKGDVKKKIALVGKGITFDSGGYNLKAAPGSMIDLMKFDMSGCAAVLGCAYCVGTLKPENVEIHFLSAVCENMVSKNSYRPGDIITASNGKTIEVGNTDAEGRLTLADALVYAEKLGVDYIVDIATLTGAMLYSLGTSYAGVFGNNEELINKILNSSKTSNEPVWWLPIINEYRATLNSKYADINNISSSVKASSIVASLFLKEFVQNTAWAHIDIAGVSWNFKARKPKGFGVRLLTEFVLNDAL

[4] = target: T4, Replicative DNA helicase DnaB (Mycobacterium tuberculosis, UniProt P9WMR3); assay: DnaB intein splicing inhibitors, dose response, biochemical, cell-free fluorescence (AID 449749); format: functional
T4 sequence (P9WMR3 whole entry): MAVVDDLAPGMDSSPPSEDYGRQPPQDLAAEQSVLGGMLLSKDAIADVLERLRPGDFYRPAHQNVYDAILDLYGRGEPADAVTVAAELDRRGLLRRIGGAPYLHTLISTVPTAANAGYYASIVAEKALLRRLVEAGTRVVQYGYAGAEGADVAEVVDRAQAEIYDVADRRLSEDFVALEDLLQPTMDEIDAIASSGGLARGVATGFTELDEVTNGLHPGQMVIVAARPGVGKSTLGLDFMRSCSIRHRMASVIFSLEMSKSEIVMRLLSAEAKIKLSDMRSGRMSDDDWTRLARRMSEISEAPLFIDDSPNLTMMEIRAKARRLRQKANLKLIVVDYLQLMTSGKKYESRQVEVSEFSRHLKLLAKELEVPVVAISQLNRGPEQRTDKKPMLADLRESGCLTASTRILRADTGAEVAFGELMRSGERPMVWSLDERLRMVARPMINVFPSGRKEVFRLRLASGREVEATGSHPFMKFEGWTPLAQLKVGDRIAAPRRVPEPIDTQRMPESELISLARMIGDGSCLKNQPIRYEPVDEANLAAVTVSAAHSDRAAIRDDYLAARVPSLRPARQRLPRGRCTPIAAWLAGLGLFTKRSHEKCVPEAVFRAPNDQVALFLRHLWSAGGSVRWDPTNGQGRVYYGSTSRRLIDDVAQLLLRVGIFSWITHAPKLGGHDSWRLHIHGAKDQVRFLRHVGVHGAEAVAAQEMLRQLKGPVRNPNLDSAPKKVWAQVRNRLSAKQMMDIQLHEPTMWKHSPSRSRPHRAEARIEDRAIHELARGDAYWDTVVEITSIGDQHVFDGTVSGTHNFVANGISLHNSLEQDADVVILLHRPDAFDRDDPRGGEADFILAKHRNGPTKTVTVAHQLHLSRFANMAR

Protein RecA = target: T5, Protein RecA (Mycobacterium tuberculosis, UniProt P9WHJ3); assay: Fluorescence Cell-Free Homogeneous Dose Retest to Identify Inhibitors of RecA-Intein Splicing Activity. [Related pubchem assays (depositor defined):AID2097, AID2223, AID489010, AID492950]; format: functional
T5 sequence (P9WHJ3 whole entry): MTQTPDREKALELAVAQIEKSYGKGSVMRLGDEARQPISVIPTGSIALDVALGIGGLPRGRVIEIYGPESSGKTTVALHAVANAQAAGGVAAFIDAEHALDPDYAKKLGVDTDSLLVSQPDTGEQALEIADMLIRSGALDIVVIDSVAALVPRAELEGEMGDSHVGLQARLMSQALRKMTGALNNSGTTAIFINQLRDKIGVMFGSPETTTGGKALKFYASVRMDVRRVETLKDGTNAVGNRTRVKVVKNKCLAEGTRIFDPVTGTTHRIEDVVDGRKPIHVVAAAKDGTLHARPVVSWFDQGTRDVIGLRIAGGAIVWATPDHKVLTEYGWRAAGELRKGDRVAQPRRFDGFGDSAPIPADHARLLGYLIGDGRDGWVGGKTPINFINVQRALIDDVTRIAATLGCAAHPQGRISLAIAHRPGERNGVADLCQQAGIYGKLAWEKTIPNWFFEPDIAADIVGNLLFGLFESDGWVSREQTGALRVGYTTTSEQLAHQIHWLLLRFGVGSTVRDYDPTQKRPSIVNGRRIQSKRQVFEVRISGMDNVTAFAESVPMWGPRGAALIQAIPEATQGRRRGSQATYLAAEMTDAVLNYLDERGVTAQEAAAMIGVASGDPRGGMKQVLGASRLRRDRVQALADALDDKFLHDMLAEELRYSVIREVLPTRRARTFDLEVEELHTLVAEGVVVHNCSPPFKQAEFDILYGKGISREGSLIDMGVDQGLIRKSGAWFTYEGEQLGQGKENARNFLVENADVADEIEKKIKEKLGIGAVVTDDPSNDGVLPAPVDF

Streptokinase A = target: T6, Streptokinase A (Streptococcus pyogenes serotype M1, UniProt P10520); assay: viability-normalized secreted streptokinase activity reduction – plasminogen activation absorbance, OD405, dose response (AID 1914); format: functional, Streptococcus pyogenes M1 GAS;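 also: secreted streptokinase activity via plasminogen activation per viability signal from cell pellet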
T6 sequence (P10520 whole entry): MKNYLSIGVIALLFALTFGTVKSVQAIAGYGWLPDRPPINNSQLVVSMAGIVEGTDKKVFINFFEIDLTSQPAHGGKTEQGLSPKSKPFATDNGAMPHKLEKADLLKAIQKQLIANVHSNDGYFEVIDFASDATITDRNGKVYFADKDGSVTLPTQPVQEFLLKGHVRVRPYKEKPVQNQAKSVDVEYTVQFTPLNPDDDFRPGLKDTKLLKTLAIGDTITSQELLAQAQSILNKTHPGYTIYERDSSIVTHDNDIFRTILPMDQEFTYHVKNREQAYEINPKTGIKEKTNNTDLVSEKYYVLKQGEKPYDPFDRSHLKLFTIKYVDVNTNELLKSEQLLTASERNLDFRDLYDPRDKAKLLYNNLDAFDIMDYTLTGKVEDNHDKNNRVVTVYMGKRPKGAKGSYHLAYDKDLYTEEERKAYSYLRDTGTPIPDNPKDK

[5] = reduction of Shn3 3'UTR-driven luciferase in osteoblasts – cell-based, Clone20 osteoblasts, firefly luciferase, cherry-picked, dose response (AID 624132); format: functional;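 also: firefly luciferase luminescence from reporter carrying the Shn3 3'UTR in osteoblasts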
[6] = non-specific 3'UTR reporter inhibition in Clone20-Shn3RL – cell-based, Renilla luciferase, cherry-picked, counter-screen for Shn3 inhibitor project, dose response (AID 624133); format: functional
Cytochrome P450 1A2 = target: T7, Cytochrome P450 1A2 (Homo sapiens, UniProt P05177);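 also: PubChem cytochrome P450 panel assay, CYP1A2 panel member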
T7 sequence (P05177 whole entry): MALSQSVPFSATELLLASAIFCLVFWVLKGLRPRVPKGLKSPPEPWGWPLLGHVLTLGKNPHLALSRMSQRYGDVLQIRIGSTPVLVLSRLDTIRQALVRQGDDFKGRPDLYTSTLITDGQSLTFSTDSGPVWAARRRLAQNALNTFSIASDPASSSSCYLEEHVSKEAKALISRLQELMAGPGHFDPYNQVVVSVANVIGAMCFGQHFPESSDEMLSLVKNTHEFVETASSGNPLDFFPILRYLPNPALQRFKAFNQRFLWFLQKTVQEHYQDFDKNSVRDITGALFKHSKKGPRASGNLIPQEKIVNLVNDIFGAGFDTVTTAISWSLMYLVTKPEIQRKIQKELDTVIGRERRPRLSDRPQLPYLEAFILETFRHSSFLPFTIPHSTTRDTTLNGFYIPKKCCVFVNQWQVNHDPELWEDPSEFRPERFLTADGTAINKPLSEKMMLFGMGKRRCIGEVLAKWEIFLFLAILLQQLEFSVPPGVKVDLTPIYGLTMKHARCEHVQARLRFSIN

Cytochrome P450 2C9 = Cytochrome P450 2C9 (Homo sapiens, UniProt P11712)
Sequence of Cytochrome P450 2C9 (P11712 whole entry): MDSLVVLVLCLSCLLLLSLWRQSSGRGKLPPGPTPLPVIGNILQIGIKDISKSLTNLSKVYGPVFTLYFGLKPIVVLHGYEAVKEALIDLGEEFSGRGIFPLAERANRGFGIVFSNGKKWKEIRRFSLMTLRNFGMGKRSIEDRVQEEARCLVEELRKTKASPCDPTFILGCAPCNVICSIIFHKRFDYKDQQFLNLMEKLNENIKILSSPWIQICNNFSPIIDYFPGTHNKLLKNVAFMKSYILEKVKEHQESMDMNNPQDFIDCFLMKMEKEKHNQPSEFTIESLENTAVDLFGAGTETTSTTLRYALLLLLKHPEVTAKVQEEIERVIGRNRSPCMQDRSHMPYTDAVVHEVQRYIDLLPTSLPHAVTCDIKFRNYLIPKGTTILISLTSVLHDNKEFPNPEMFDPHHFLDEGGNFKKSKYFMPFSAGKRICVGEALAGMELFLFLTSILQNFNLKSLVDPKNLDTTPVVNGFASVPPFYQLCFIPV

Nonstructural protein 1 = Nonstructural protein 1 (Influenza A virus, UniProt Q194T2); format: functional, Influenza A virus (A/California/07/2009(H1N1))
Sequence of Nonstructural protein 1 (Q194T2 whole entry): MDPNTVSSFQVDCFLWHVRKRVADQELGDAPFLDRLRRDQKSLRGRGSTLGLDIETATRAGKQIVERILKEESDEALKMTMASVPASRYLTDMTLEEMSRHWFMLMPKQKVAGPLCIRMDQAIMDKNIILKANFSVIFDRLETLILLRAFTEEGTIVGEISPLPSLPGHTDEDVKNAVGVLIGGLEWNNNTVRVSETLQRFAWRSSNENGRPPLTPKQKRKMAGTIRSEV

[7] = target: FAD-linked sulfhydryl oxidase ALR (Homo sapiens, UniProt P55789); assay: ALR-catalysed DTT oxidation blockers – biochemical, H2O2 detection, luminescence, cherry-pick, dose response (AID 493248)
Sequence of FAD-linked sulfhydryl oxidase ALR (P55789 whole entry): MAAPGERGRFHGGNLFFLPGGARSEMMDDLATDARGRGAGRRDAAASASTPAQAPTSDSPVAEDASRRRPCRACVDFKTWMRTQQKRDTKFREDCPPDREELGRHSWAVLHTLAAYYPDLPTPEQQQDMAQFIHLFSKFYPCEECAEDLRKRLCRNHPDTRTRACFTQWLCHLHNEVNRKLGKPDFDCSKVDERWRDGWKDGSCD

Cc1c(C(=O)N2CCOCC2)sc2ncnc(N3CCc4ccccc4C3)c12
IC50 (Coagulation factor XII): > 50 µM (inactive) | EC50 [1]: > 112 µM (not active) | EC50 [2]: > 112 µM (not active)

Cc1ccc(NC(=O)CSc2nc3ccccc3c(=O)n2CCCC(=O)NCCCN2CCOCC2)cc1C
IC50 [3]: > 20 µM (inactive)

Cc1ccc2cc(C=C3C(=O)NC(=O)NC3=O)c(O)nc2c1
IC50 (Large T antigen): > 100 µM (active) | IC50 (Genome polyprotein): 79 µM (active)

O=C(Cc1cc(O)n[nH]1)N/N=C/C(Cl)=C/c1ccccc1
IC50 (Leucine aminopeptidase): 90.6 µM (active) | AC50 [4]: 1.95 µM (active) and 2.24 µM (active) | EC50 (Protein RecA): 1.02 µM (active) and 2.32 µM (active)

CCN1CCN(Cc2ccc(NC(=O)c3cc(NC(=O)c4cc(-c5ccc(OC)cc5)n[nH]4)cc(OC)c3)cc2C(F)(F)F)CC1
IC50 [3]: > 20 µM (inactive) | EC50 (Streptokinase A): > 150 µM (not active)

O=C1NCCOC(=O)[C@@H](Cc2ccc(F)cc2)CC/C=C/C[C@@H]1CC(=O)N(CCO)Cc1ccccc1
AC50 [5]: > 70 µM (inactive) | AC50 [6]: 29.6 µM (active)

Cc1cc(NC(=O)CCN2C(=O)C3C4CCC(C4)C3C2=O)c(C)cc1Br (configuration not stated)
AC50 (Cytochrome P450 1A2): 15.8 µM (inconclusive) | IC50 (Leucine aminopeptidase): 13.7 µM (active) | AC50 (Cytochrome P450 2C9): inconclusive

CN(CC(=O)O)Cc1nc2ccccc2[nH]1
IC50 (Nonstructural protein 1): 11.6 µM (active)

CC(C)c1cccc(-c2ccc3c(c2)S(=O)(=O)c2cccc(C(=O)O)c2C3=O)c1
IC50 (Genome polyprotein): 66.2 µM (active)

COc1ccccc1NC(=O)c1c(/N=C/c2cccc([N+](=O)[O-])c2)cnn1C
IC50 [3]: > 20 µM (inactive)

Clc1ccccc1CNc1ncnc2nc[nH]c12
IC50 (Leucine aminopeptidase): 48.3 µM (active)

O=C(c1ccco1)N1CCN(C(=O)c2[nH]ncc2[N+](=O)[O-])CC1
IC50 (Leucine aminopeptidase): 2.22 µM (active)

CCC(=O)NC(c1cc(Cl)c2ccccc2c1O)C(C)C (configuration not stated)
IC50 [3]: > 20 µM (inactive)

Cc1cccc(N(C(=O)c2snc(C(N)=O)c2N)C(C(=O)NC2CCCC2)c2ccco2)c1 (configuration not stated)
IC50 [3]: > 20 µM (inactive)

Nc1n[nH]c(SCC(=O)Nc2ccc3c(c2)CCC3)n1
IC50 (Leucine aminopeptidase): 45.2 µM (active)

O=C(NNc1cc(Br)c(O)c(Br)c1)c1ccccc1
AC50 [7]: 0.192 µM (active) | IC50 (Genome polyprotein): 63.2 µM (active)

CC1CCN(C(=O)c2ccc3c(c2NCCO)C(=O)c2ccccc2C3=O)CC1
IC50 (Nonstructural protein 1): 24.5 µM (active)
